# According to patent US4228160A (priority 1978, dated 1980):
# Like-named read-outs stand apart in the source and are kept apart here.
# What was measured:
# [1] = Solubility tests at different pH; format: physicochemical; details: pH=2
# inflammation = test: Speed of onset and duration of antiinflammatory activity, Carrageenin feet inflammation; format: in vivo, rat (female, strain CFY); details: simultaneous administration with Carrageenin (FIG. 5)
# Method: The test compound, the reference substance, the animals, the treatment, doses, investigation are all the same as described above. The differences can be found below.
# In this series of tests the following investigations were carried out:
# 2. Carrageenin was given 1, 2 and 3 hours after the administration of the antiinflammatory agent and the results were evaluated after 3 hours. The animals were exterminated with ether and the weight of the separated untreated feet and feet treated with Carrageenin was measured. The feet were separated above the metacarpus.
# The weight difference of the untreated and treated feet in the same animal was calculated. […] The antiinflammatory activity was calculated in percent and the results are plotted in FIGS. 4 and 5.
# rat [2] = format: in vivo, rat (Long-Evans strain)
# Method: As a reference compound pure Indomethacin is used.
# Subacute toxicity test was carried out in male and female animals derived from Long-Evans strain, 10--10 animals were treated for each test compound and both for female and male animals. At the beginning of the test the animals were 7 week old, of an average bodyweight of 140-160 g. The animals were kept at constant temperature (22°-24° C.) and under constant relative humidity (45-50%). During the treatment the animals were on a standard diet and drank water ad libitum.
# The subacute toxicity test corresponds to a 4 weeks' treatment period. The animals were treated daily at the same time in the morning. The complex of a molar ratio 1:1 and the reference substance were administered in the form of a suspension in 1% methyl cellulose through an oesophaged sound. The animals of the control group get 1% methyl cellulose per os. The weight increase and the clinical state of the animals were registered during the treatment every week.
# 1. Control: 1% methyl cellulose, 0.2 ml./100 g. per os
# The animals were treated for 28 days. On the 29th day the living animals were exterminated with ether and the stomach and the duodenum were prepared. Also the stomach and duodenum of the animals perished during the treatment were prepared.
# In each case the mucous membrane of the stomach, bile and intestine were examined macroscopically and the number of the eventual ulcers and erosions was determined.
# [3] = Stability in solubility test (thin layer chromatography); format: physicochemical; details: under the conditions of the solubility tests
# [4] = Diffusion test through semipermeable membrane; format: physicochemical
# From the text: The two sides of a diffusion cell are separated by a semipermeable membrane.
# [5] = cited from earlier work
# [6] = aqueous solution, cited from earlier work
# ovariectomized rat = test: Pregnancy protective activity in the ovariectomized rat; format: in vivo, rat (CFY strain); details: per os
# From the text: Test animal: female rat of an average weight of 308 g., derived from 18 CFY strain
# The ovary of the animals was removed on the 17th day of pregnancy and the animals were placed individually in cages.
# 6 animals were used as control.
# On the 19th day and 20th day in the morning of the pregnancy the treatment was repeated.
# in vivo = test: in vivo; set-up: species or system rat (CFY strain); details: rat, in vivo, po, 5 mg./kg. p.o.
# Method: (§1) Subacute toxicity test was carried out in male and female animals derived from CFY strain and 10--10 animals were treated for each substance and for male and female rats each.
# (§2) At the beginning of the investigation the animals were 7 weeks old and weighed 150-170 g. The animals were kept at a constant temperature (22°-24° C.) and under constant relative humidity (45-50%). During treatment the animals were on a standard diet and drank water ad libitum.
# (§3) The animals were treated daily at the same time of the day, in the morning. The test compound and the reference substance were administered in the form of a suspension prepared with 1% methyl cellulose through an oesophagial sound. The animals of the control group obtained 1% methyl cellulose per os. The weight increase of the animals and their clinical states were registered during the treatment every week.
# (§4) 1. Control: 1% methyl cellulose suspension 0.2 ml./100 g. per os;
# (§5) Investigation: the animals were treated for 28 days.
# rat [7] = test: in vivo; set-up: species or system rat (CFY strain)
# Method: as §1, §2, §3, §4, §5
# [8] = 16 mg./kg. 1:1 complex or 5 mg./kg. Indomethacin p.o., control 0/10
# [9] = 28 days, 16 mg./kg 1:1 complex or 5 mg./kg. Indomethacin p.o., control 0/10
# [10] = number related to treated animals, 28 days p.o., 40.3 mg./kg. CD-Ind or 5.0 mg./kg. Ind., control 0/10
smiles,measurement,setting,value
"COc1ccc2c(c1)c(CC(=O)O)c(C)n2C(=O)c1ccc(Cl)cc1 [Indomethacin, 1-(p-Chloro-benzoyl)-5-methoxy-2-methyl-indol-3-acetic acid]",solubility,[1],substantially insoluble
same,antiinflammatory activity 6 hours after treatment,inflammation,inflammation increases after 6 hours
same,"animals with ulcers, female",rat [2]; 5 mg./kg.,70%
same,"animals with ulcers, male",rat [2]; 5 mg./kg.,80%
same,"Lethality, 7th day, female",rat [2]; [8],1/10
same,"Lethality, 7th day, male",rat [2]; [8],4/10
same,"Lethality, 14th day, female",rat [2]; [8],2/10
same,"Lethality, 14th day, male",rat [2]; [8],4/10
same,"Lethality, 21st day, female",rat [2]; [8],3/10
same,"Lethality, 21st day, male",rat [2]; [8],5/10
same,"Lethality, 28th day, female",rat [2]; [8],6/10
same,"Lethality, 28th day, male",rat [2]; [8],6/10
same,"ulcer, female",rat [2]; [9],7/10
same,"ulcer, male",rat [2]; [9],8/10
same,"erosion, female","rat [2]; 28 days, 16 mg./kg 1:1 complex or 5 mg./kg. Indomethacin p.o., control 2/10",10/10
same,"erosion, male","rat [2]; 28 days, 16 mg./kg 1:1 complex or 5 mg./kg. Indomethacin p.o., control 3/10",10/10
same,clinical symptoms,"rat [2]; from third day, 5 mg./kg. Indomethacin or 16 mg./kg. 1:1 complex",bradypnoe and depression
same,decomposition of Indomethacin,[3],not decomposed
same,time to equilibrium,[4]; pure buffer on other side,4 h
same,distribution of Indomethacin,"[4]; β-cyclodextrin buffer solution on other side, 4 hours","more Indomethacin on the β-cyclodextrin side after 4 hours, than on the Indomethacin side"
same,original solubility,"[5]; 35° C., aqueous, without cyclodextrin",350 µM
same,solubility increased by cyclodextrin,[5]; aqueous solution with cyclodextrin,980 µM
same,solubility increase,[5]; with cyclodextrin vs original,2.8 times
same,hydrolysis,[6]; in the presence of glucose,hydrolyses rapidly
same,hydrolysis,[6]; in the presence of α-cyclodextrin,slowly
same,hydrolysis,[6]; in the presence of β-cyclodextrin,inhibits hydrolysis
same,foetus retention compared with the control,ovariectomized rat,significantly increased the percentage of the foetus retention
same,foeti left alive,"ovariectomized rat; 1.25 mg./kg. Indomethacin on 18th day, repeated 19th and 20th day, dissected 21st day, control 16.1%",58.8%
same,mortality at 336 h,"in vivo; by the 14th day, read-out: dead animals, male",80%
same,mortality at 504 h,"in vivo; by the 21st day, read-out: dead animals, female",60%
same,"erosion, female",rat [7]; [10],7/10
same,"ulcer, female",rat [7]; [10],6/10
same,"ulcer, male",rat [7]; [10],7/10
same,"erosion, male","rat [7]; number related to treated animals, 28 days p.o., 40.3 mg./kg. CD-Ind or 5.0 mg./kg. Ind., control 1/10",9/10
same,Average body weight,"rat [7]; week 0, control 152.5",164.5 g
same,Average body weight,"rat [7]; week 0, control 154.5",161.5 g
same,Average body weight,"rat [7]; week 1, control 183.0",182.0 g
same,Average body weight,"rat [7]; week 1, control 196.5",210.7 g
same,Average body weight,"rat [7]; week 2, control 209.0",177.5 g
same,Average body weight,"rat [7]; week 2, control 240.5",212.5 g
same,Average body weight,"rat [7]; week 3, control 222.0",206.5 g
same,Average body weight,"rat [7]; week 3, control 276.5",287.5 g
same,Average body weight,"rat [7]; week 4, control 241.0",221.2 g
same,Average body weight,"rat [7]; week 4, control 300.5",320.0 g
